# Legend:
# Type in all cases: in vivo
# [1] = test system: Italian ryegrass (Lolium multiflorum); assay: (9) Herbicidal effect test, pot, spray at 3.2 to 4.0 leaf stage; details: 6th day after spraying
# Excerpt: (§1) [formula] • X: growth inhibition rate when treated with α (g/ha) of compound A, • Y: growth inhibition rate when treated with β (g/ha) of compound B, • E: growth inhibition rate expected when treated with α (g/ha) of compound A and β (g/ha) of compound B (expected value).
# Upland soil was put in a 1/1,000,000 hectare pot, and seeds of Italian ryegrass (Lolium multiflorum) were sown. When Italian ryegrass reached 3.2 to 4.0 leaf stage, a water-based suspension containing tiafenacil as the active ingredient, prepared by a conventional method for preparing a water-based suspension, and a wettable powder containing tri-allate as the active ingredient, prepared by a conventional method for preparing a wettable powder, an emulsifiable concentrate containing pethoxamid as the active ingredient (tradename: Successor 600, manufactured by Stähler Suisse SA) or an emulsifiable concentrate containing dimethenamid-P as the active ingredient (tradename: Fieldstar P emulsifiable concentrate, manufactured by BASF) were diluted with water (in an amount corresponding to 200 liter per hectare) containing 0.5 vol % of an agricultural spreader (tradename: Destiny HC, manufactured by Winfield Solutions, LLC.) and sprayed by a small spray gun (model: W-101-132G, manufactured by ANEST IWATA Corporation). On the 6th day after spraying, the state of growth of the Italian ryegrass was visually observed, and the growth inhibition rate (%) was obtained in accordance with the evaluation standards described in the above (1) herbicidal effect test, and the results are shown in Table 9. Further, the expected value of the growth inhibition rate (%) was calculated in accordance with the Colby's formula described in the above (1) herbicidal effect test, and the results are also shown in Table 9.
# [2] = test system: Italian ryegrass (Lolium multiflorum); assay: (4) Herbicidal effect test, pot, spray at 2.5 to 3.0 leaf stage; details: 7th day after spraying
# Excerpt: as §1
# (§2) Upland soil was put in a 1/1,000,000 hectare pot, and seeds of Italian ryegrass (Lolium multiflorum) were sown. When the Italian ryegrass reached 2.5 to 3.0 leaf stage, a water-based suspension containing tiafenacil as the active ingredient, prepared by a conventional method for preparing a water-based suspension, and a wettable powder containing metribuzin as the active ingredient (tradename: SENCOR wettable powder, manufactured by Bayer Crop Science) were diluted with water (in an amount corresponding to 200 liter per hectare) containing 0.5 vol % of an agricultural spreader (tradename: Destiny HC, manufactured by Winfield Solutions, LLC.) and sprayed by a small spray gun (model: W-101-132G, manufactured by ANEST IWATA Corporation).
# On the 7th day after spraying, the state of growth of the Italian ryegrass was visually observed, and the growth inhibition rate (%) was obtained in accordance with the evaluation standards described in the above (1) herbicidal effect test, and the results are shown in Table 4. Further, the expected value of the growth inhibition rate (%) was calculated in accordance with the Colby's formula described in the above (1) herbicidal effect test, and the results are also shown in Table 4.
# [3] = test system: Italian ryegrass (Lolium multiflorum); assay: (3) Herbicidal effect test, pot, spray at 2.8 to 3.2 leaf stage; details: 7th day after spraying
# Excerpt: as §1
# Upland soil was put in a 1/1,000,000 hectare pot, and seeds of Italian ryegrass (Lolium multiflorum) were sown. When the Italian ryegrass reached 2.8 to 3.2 leaf stage, a water-based suspension containing tiafenacil as the active ingredient, prepared by a conventional method for preparing a water-based suspension, and an emulsifiable concentrate containing S-metolachlor as the active ingredient (tradename: Dual Gold, manufactured by Syngenta), were diluted with water (in an amount corresponding to 200 liter per hectare) containing 0.5 vol % of an agricultural spreader (tradename: Destiny HC, manufactured by Winfield Solutions, LLC.) and sprayed by a small spray gun (model: W-101-132G, manufactured by ANEST IWATA Corporation). […] Further, the expected value of the growth inhibition rate (%) was calculated in accordance with the Colby's formula described in the above (1) herbicidal effect test, and the results are also shown in Table 3.
# [4] = test system: forage corn (cultivar: SNOW DENT OTOHA); assay: (20) Plant growth promotion effect test (corn), Italian ryegrass sown; details: 33rd day after the sowing, above-ground part
# Description: as §2, with “2.7” for “2.5”, “an emulsifiable concentrate” for “a wettable powder”, “dimethenamid-P” for “metribuzin”, “Fieldstar P emulsifiable concentrate,” for “SENCOR wettable powder,”, “BASF)” for “Bayer Crop Science)”, “Corporation). Seeds of forage corn (cultivar: SNOW DENT OTOHA, manufactured by SNOW BRAND SEED Co., Ltd.) were sown in the pot after spraying. On the 33rd day after the sowing, the above-ground part of the forage corn was reaped, and its weight was measured to obtain the raw weight.” for “Corporation).”
# [5] = test system: wheat (cultivar: Norin 61); assay: (22) Plant growth promotion effect test (wheat), Italian ryegrass sown; details: 21st day after the sowing, above-ground part
# Description: as §2, with “2.8” for “3.0”, “tri-allate” for “metribuzin”, “ingredient, prepared by a conventional method for preparing a” for “ingredient (tradename: SENCOR”, “powder,” for “powder, manufactured by Bayer Crop Science)”, “Corporation). Seeds of wheat (cultivar: Norin 61, manufactured by Asahi Noen Seed Co., Ltd.) were sown in the pot after spraying. On the 21st day after the sowing, the above-ground part of the wheat was reaped, and its weight was measured to obtain the raw weight.” for “Corporation).”
smiles,measurement,setting,value
CCOCCN(C(=O)CCl)C(=C(C)C)c1ccccc1 [pethoxamid],Growth inhibition rate (%) Measured value,[1]; Dose 312.5 g/ha,5%
same,Growth inhibition rate (%) Measured value,[1]; Dose 437.5 g/ha,3%
same,Growth inhibition rate (%) Measured value,[1]; Dose 625 g/ha,8%
CSc1nnc(C(C)(C)C)c(=O)n1N [metribuzin],inhibition at 9.38 g/ha,"[2]; Lolium multiflorum, Dose 9.38 g/ha, read-out: Growth inhibition rate (%) Measured value",0%
same,inhibition at 275 g/ha,"[2]; Lolium multiflorum, Dose 275 g/ha, read-out: Growth inhibition rate (%) Measured value",45%
same,inhibition at 550 g/ha,"[2]; Lolium multiflorum, Dose 550 g/ha, read-out: Growth inhibition rate (%) Measured value",57%
same,inhibition at 1100 g/ha,"[2]; Lolium multiflorum, Dose 1100 g/ha, read-out: Growth inhibition rate (%) Measured value",88%
COC(=O)CCNC(=O)C(C)Sc1cc(-n2c(=O)cc(C(F)(F)F)n(C)c2=O)c(F)cc1Cl (centres unmarked) [tiafenacil],Growth inhibition rate (%) Measured value,[3]; Dose 12.5 g/ha,53%
same,Growth inhibition rate (%) Measured value,[2]; Dose 6.25 g/ha,30%
same,Growth inhibition rate (%) Measured value,[1]; Dose 6.25 g/ha,30%
same,Raw weight (g) of forage corn,[4]; Dose 6.25 g/ha,12.1 g
same,Raw weight (g) of wheat,[5]; Dose 3 g/ha,2.2 g
COC[C@H](C)N(C(=O)CCl)c1c(C)csc1C [dimethenamid-P],Growth inhibition rate (%) Measured value,[1]; Dose 500 g/ha,33%
same,Growth inhibition rate (%) Measured value,[1]; Dose 625 g/ha,40%
same,Raw weight (g) of forage corn,[4]; Dose 60 g/ha,9.8 g
same,Raw weight (g) of forage corn,[4]; Dose 375 g/ha,12.5 g
same,Raw weight (g) of forage corn,[4]; Dose 750 g/ha,8.0 g
CC(C)N(C(=O)SCC(Cl)=C(Cl)Cl)C(C)C [tri-allate],inhibition at 937.5 g/ha,"[1]; Lolium multiflorum, Dose 937.5 g/ha, read-out: Growth inhibition rate (%) Measured value",3%
same,Raw weight (g) of wheat,[5]; Dose 200 g/ha,2.3 g
CCc1cccc(C)c1N(C(=O)CCl)[C@@H](C)COC [S-metolachlor],Growth inhibition rate (%) Measured value,[3]; Dose 15.6 g/ha,0%
